# Biological target: T1, hGLP-1 receptor (Homo sapiens, UniProt P43220)
# T1 construct: expressed in transfected cells; host or cells: CHO-K1 (stably transfected with hGLP-1 receptor plasmid and CRE-luc plasmid)
# Test: Agonist activity against GLP-1 receptor (CRE-luciferase reporter, ONE-Glo Luciferase Assay System)
# Assay type: cell-based
# Details: CHO-K1/CRE-luc/hGLP-1 receptor cells; 5 h incubation with compound; chemiluminescence readout
# Text: This experiment was intended to test the agonist activity of compound molecules against hGLP-1 receptor and evaluate the in vitro activity of the molecules according to EC50. In this experiment, ONE-Glo™ Luciferase Assay System (ONE-Glo™ Luciferase Assay System, Promega, E6110) was used. Under the action of the compound molecules, GLP-1R downstream signaling pathways were activated to cause elevated cAMP level. The binding of cAMP to CRE could initiate the transcriptional expression of a CRE downstream luciferase gene. The luciferase could emit fluorescence when reacting with a substrate thereof. The fluorescence signal, which reflected the activity of the compound for agonizing GLP-1 receptor, was measured by means ONE-Glo™ reagent.
# A stably transfected CHO-K1/CRE-luc/hGLP-1 receptor cell strain (hGLP-1 receptor plasmid constructed in-house and CRE-luc plasmid Promega E8471) was constructed. CHO-K1/CRE-luc/hGLP-1 receptor cells were digested, centrifuged, and then resuspended. The single cell suspension was uniformly mixed and adjusted to a viable cell density of 2.78 × 10^5 cells/ml with a cell culture medium (DME/F-12 + 10% FBS). The resulting solution was added to a 96-well cell culture plate at 90 µL/well (Corning, #3903). The culture plate was incubated in an incubator for 16 h (37°C, 5% CO2).
# The compound was dissolved in DMSO to prepare a stock solution with an initial concentration of 20 mM. The starting concentration of the small molecule compound was 0.02 mM. The compound was subjected to 3-fold dilution for 10 points, wherein the 11th point was DMSO. Another 96-well plate was taken, to which was added 95 µL/well of a cell culture medium (DME/F-12 + 10% FBS), followed by 5 µL/well of test samples with different concentrations. The mixtures were uniformly mixed. Next, 10 µL/well of test samples with different concentrations were added to the cell culture plate, with two duplicate wells for each sample. The culture plate was incubated in an incubator for 5 h (37°C, 5% CO2). The 96-well cell culture plate was taken out. 100 µL/well of ONE-Glo™ reagent was added, followed by incubation at room temperature for 10 minutes. Chemiluminescence was measured in and by a microplate reader (PHERAstar FS, BMG labtech).
# Data were processed and analyzed using Microsoft Excel and Graphpad Prism 10. EC50 values of the compounds were obtained. Table 1. Agonist activity of the compounds of the present invention against hGLP-1 receptor
# T1 sequence (P43220 24-463): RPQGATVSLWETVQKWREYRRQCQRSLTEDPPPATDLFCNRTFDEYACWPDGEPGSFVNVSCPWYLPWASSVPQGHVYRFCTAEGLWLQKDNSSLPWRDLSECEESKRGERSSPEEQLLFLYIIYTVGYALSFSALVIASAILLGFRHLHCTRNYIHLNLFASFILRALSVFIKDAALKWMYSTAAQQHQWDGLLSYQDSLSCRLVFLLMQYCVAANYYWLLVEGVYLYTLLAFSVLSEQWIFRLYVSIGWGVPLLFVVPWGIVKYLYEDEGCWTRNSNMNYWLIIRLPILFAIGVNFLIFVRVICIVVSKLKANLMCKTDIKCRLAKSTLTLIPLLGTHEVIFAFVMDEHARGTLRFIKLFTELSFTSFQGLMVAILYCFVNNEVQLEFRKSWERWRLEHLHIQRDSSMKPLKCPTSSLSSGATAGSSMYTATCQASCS
EC50 [pM],Emax [fold],SMILES
20,18.46,"Cc1cc(-n2nc3c(c2N2C[C@@H]4COc5cc6c(cnn6C(F)F)c(F)c5N4C2=O)[C@H](C)N(C(=O)c2cc4cc([C@H]5CCOC(C)(C)C5)ccc4n2[C@@]2(c4noc(=O)[nH]4)C[C@@H]2C)CC3)cc(C)c1F [Compound 25, (R)-7-(difluoromethyl)-2-((S)-5-(5-((S)-2,2-dimethyltetrahydro-2H-pyran-4-yl)-1-((1S,2S)-2-methyl-1-(5-oxo-4,5-dihydro-1,2,4-oxadiazol-3-yl)cyclopropyl)-1H-indole-2-carbonyl)-2-(4-fluoro-3,5-dimethylphenyl)-4-methyl-4,5,6,7-tetrahydro-2H-pyrazolo[4,3-c]pyridin-3-yl)-10-fluoro-2,3,3a,4-tetrahydro-1H,7H-imidazo[1',5':4,5][1,4]oxazino[3,2-f]indazol-1-one]"
390,16.51,"Cc1cc(-n2nc3c(c2-n2ccn(-c4ccc5c(cnn5C)c4F)c2=O)[C@H](C)N(C(=O)c2cc4cc5c(cc4n2[C@@]2(c4noc(=O)[nH]4)C[C@@H]2C)OCC2COCCC52)CC3)cc(C)c1F (stereo partly drawn) [Compound 4, 3-((1S,2S)-1-(9-((S)-3-(3-(4-fluoro-1-methyl-1H-indazol-5-yl)-2-oxo-2,3-dihydro-1H-imidazol-1-yl)-2-(4-fluoro-3,5-dimethylphenyl)-4-methyl-4,5,6,7-tetrahydro-2H-pyrazolo[4,3-c]pyridine-5-carbonyl)-1,4a,5,11b-tetrahydro-4H-pyrano[4',3':4,5]pyrano[3,2-f]indol-8(2H)-yl)-2-methylcyclopropyl)-1,2,4-oxadiazol-5(4H)-one]"
10,21.50,"Cc1cc(-n2nc3c(c2N2C[C@@H]4COc5cc6c(cnn6C6CC6)c(F)c5N4C2=O)[C@H](C)N(C(=O)c2cc4cc([C@H]5CCOC(C)(C)C5)ccc4n2[C@@]2(c4noc(=O)[nH]4)C[C@@H]2C)CC3)cc(C)c1F [Compound 13, (R)-7-cyclopropyl-2-((S)-5-(5-((S)-2,2-dimethyltetrahydro-2H-pyran-4-yl)-1-((1S,2S)-2-methyl-1-(5-oxo-4,5-dihydro-1,2,4-oxadiazol-3-yl)cyclopropyl)-1H-indole-2-carbonyl)-2-(4-fluoro-3,5-dimethylphenyl)-4-methyl-4,5,6,7-tetrahydro-2H-pyrazolo[4,3-c]pyridin-3-yl)-10-fluoro-2,3,3a,4-tetrahydro-1H,7H-imidazo[1',5':4,5][1,4]oxazino[3,2-f]indazol-1-one]"
20,22.76,"Cc1cc(-n2nc3c(c2N2C[C@@H]4COc5c(ccc6c5cnn6C)N4C2=O)[C@H](C)N(C(=O)c2cc4cc([C@H]5CCOC(C)(C)C5)ccc4n2[C@@]2(c4noc(=O)[nH]4)C[C@@H]2C)CC3)cc(C)c1F [Compound 23, (R)-7-((S)-5-(5-((S)-2,2-dimethyltetrahydro-2H-pyran-4-yl)-1-((1S,2S)-2-methyl-1-(5-oxo-4,5-dihydro-1,2,4-oxadiazol-3-yl)cyclopropyl)-1H-indole-2-carbonyl)-2-(4-fluoro-3,5-dimethylphenyl)-4-methyl-4,5,6,7-tetrahydro-2H-pyrazolo[4,3-c]pyridin-3-yl)-1-methyl-5,5a,6,7-tetrahydro-1H,8H-imidazo[1',5':4,5][1,4]oxazino[2,3-e]indazol-8-one]"

SMILES,EC50 [pM],Emax [fold]
Cc1cc(-n2nc3c(c2-n2ccn(-c4ccc5c(cnn5C)c4F)c2=O)[C@H](C)N(C(=O)c2cc4cc5c(cc4n2[C@@]2(c4noc(=O)[nH]4)C[C@@H]2C)OCC52CCOCC2)CC3)cc(C)c1F [Compound 7],30,14.46

# Reference: patent EP4813984A1 (Jiangsu Hengrui Pharmaceuticals Co., Ltd., priority 2023, dated 2025)
